# Laboratory results from patent US8883749B2, “Transcription factor inhibitors and related compositions, formulations and methods” (The Ohio State University, priority 2009, dated 2014).
# Like-named read-outs stand apart in the source and are kept apart here.
# What was measured:
# [1] = system: SK-BR-3 breast cancer cells; test: MTT cell viability assay; assay type: cell-based, human; conditions: SK-BR-3, MTT, 72 hours, 10% FBS, read-out: half-maximal inhibitory concentration (IC50), cell viability
# Procedure: (§1) STAT3 activation is important for tumor cell proliferation and survival.
# (§2) The cells were incubated at 37° C. for a period of 72 hours. 3-(4,5-Dimethylthiazolyl)-2,5-diphenyltetrazolium bromide (MTT) viability assay was done according to manufacturer's protocol (Roche Diagnostics, Mannheim, Germany). […] Half-maximal inhibitory concentrations (IC50) were determined using Sigma Plot 9.0 Software (Systat Software Inc., San Jose, Calif.).
# [2] = system: PANC-1 pancreatic cancer cells; test: MTT cell viability assay; assay type: cell-based, human; conditions: PANC-1, MTT, 72 hours, 10% FBS, read-out: half-maximal inhibitory concentration (IC50), cell viability
# Procedure: as §1, §2
# [3] = system: U373 glioblastoma cells; test: MTT cell viability assay; assay type: cell-based, human; conditions: 72 hours, 10% FBS, read-out: half-maximal inhibitory concentration (IC50), cell viability
# Procedure: as §1, §2
# [4] = system: HPAC pancreatic cancer cells; test: MTT cell viability assay; assay type: cell-based, human; conditions: 72 hours, 10% FBS, read-out: half-maximal inhibitory concentration (IC50), cell viability
# Procedure: as §1, §2
# [5] = system: MDA-MB-231 breast cancer cells; test: MTT cell viability assay; assay type: cell-based, human; conditions: MDA-MB-231, MTT, 72 hours, 10% FBS, read-out: half-maximal inhibitory concentration (IC50), cell viability
# Procedure: as §1, §2
# [6] = system: U87 glioblastoma cells; test: MTT cell viability assay; assay type: cell-based, human; conditions: 72 hours, 10% FBS, read-out: half-maximal inhibitory concentration (IC50), cell viability
# Procedure: as §1, §2
# [7] = system: ALDH^+ subpopulation of MDA-MB-231, SUM159, and SK-BR-3 breast cancer cells; test: ALDEFLUOR assay, percentage of ALDH+ subpopulation; assay type: cell-based, human; conditions: 10 μM, 24 hours
# From the text: The ALDEFLUOR kit (StemCell Technologies) was used to isolate the population with high ALDH enzymatic activity as known. […] For each sample, an aliquot of cells was stained under identical conditions with […] diethylaminobenzaldehyde (DEAB), a specific ALDH inhibitor, as a ALDH^− control. Anti-human PE-CD24 and PE-Cy5-CD44 antibody (BioLegend) were used for CD44/CD24 identification and to separate ALDH^+/CD44^+/CD24^− and ALDH^−/CD44^+/CD24^+ cells when combine with ALDH staining. Analysis was performed using a FACStarPLUS (Becton Dickinion) flow cytometer.
# [8] = system: ALDH^+ subpopulation of MDA-MB-231, SUM159, and SK-BR3 cells; test: MTT cell viability assay of ALDH+ cells; assay type: cell-based, human; conditions: 1 to 10 μmol/L, 72 hours
# Procedure: The ALDH^+ subpopulation of breast cancer cells was seeded in 96-well plates (3,000 cells/well) in triplicates in a serum-free mammary epithelial basal medium. […] MTT (Thiazolyl Blue Tetrazolium Bromide, Sigma-Aldrich) assay was used to determine the cell viability.
# [9] = target: STAT3 phosphorylation in ALDH^+ subpopulation of MDA-MB-231, SUM159, and SK-BR-3 (Homo sapiens, UniProt P40763); test: Western blot of ALDH+ cells; assay type: cell-based; conditions: LLL12 5 μmol/L, 24 hours
# Procedure: ALDH^+ and ALDH^- subpopulations, or ALDH^+/CD44^+/CD24^- and ALDH^-/CD44^+/CD24^+ subpopulations of breast cancer cells were separated by flow cytometer. After sorting, ALDH^+ and ALDH^+/CD44^+/CD24^- stem cells were cultured in serum-free stem cell medium in ultra-low attachment six-well plates (Corning) to maintain cancer stem cell characteristics. ALDH^-, ALDH^-/CD44^+/CD24^+ cells and unseperated cells were cultured in regular medium and replaced with identical stem cell medium for three days before being harvested.
# [10] = system: ALDH^− cells; test: Effects on ALDH- cells; assay type: cell-based, human
# [11] = system: ALDH^+ subpopulation of SK-BR-3, MDA-MB-231, and SUM159; test: Tumorsphere culture of ALDH+ cells; assay type: cell-based, human; conditions: 2.5-10 μmol/L, 10 to 15 days
# Procedure: Tumorsphere culture was performed as previously described (4). ALDH^+ and ALDH^+/CD44^+/CD24^− cells were plated as single cells in ultra-low attachment six-well plates at a density of 50,000 viable cells/well. […] Tumorsphere growth was observed under a microscope 10 to 15 days later.
# [12] = target: T1, Fes (Homo sapiens, UniProt P07332); test: Kinase profiler assay; assay type: biochemical; conditions: 10 concentrations, 100 μM highest
# T1 construct: purchased Millipore UK Limited (Dundee, UK) or Reaction Biology Corp. (Malvern, Pa.)
# [13] = target: T2, C-RAF (Homo sapiens, UniProt P04049); test: Kinase profiler assay; assay type: biochemical; conditions: 10 concentrations, 100 μM highest
# T2 construct: purchased Millipore UK Limited (Dundee, UK) or Reaction Biology Corp. (Malvern, Pa.)
# T2 sequence (P04049 whole entry): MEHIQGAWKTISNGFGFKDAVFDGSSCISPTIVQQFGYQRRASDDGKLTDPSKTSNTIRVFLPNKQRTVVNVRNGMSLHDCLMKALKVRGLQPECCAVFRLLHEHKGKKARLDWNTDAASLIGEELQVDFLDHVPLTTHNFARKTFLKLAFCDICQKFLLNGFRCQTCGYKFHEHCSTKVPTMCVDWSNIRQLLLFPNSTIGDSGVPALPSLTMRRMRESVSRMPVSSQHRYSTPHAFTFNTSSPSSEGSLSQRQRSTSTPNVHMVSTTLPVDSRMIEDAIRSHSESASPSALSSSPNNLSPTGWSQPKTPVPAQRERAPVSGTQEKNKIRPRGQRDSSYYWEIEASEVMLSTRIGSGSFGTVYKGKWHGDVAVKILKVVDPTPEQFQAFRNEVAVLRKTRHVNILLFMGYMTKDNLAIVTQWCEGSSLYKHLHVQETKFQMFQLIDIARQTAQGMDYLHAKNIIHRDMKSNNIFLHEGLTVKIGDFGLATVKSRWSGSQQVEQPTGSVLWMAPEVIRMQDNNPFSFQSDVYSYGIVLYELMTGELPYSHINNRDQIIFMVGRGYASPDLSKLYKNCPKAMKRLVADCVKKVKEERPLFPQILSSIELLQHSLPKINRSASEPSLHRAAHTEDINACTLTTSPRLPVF
# [14] = target: T3, Erb B2/H ER2 (Homo sapiens, UniProt P04626); test: Kinase profiler assay; assay type: biochemical; conditions: 10 concentrations, 100 μM highest
# T3 construct: purchased Millipore UK Limited (Dundee, UK) or Reaction Biology Corp. (Malvern, Pa.)
# [15] = target: T4, Yes (Homo sapiens, UniProt P07947); test: Kinase profiler assay; assay type: biochemical; conditions: 10 concentrations, 100 μM highest
# T4 construct: purchased Millipore UK Limited (Dundee, UK) or Reaction Biology Corp. (Malvern, Pa.)
# [16] = target: T5, Bmx (Homo sapiens, UniProt P51813); test: Kinase profiler assay; assay type: biochemical; conditions: 10 concentrations, 100 μM highest
# T5 construct: purchased Millipore UK Limited (Dundee, UK) or Reaction Biology Corp. (Malvern, Pa.)
# [17] = target: T6, mTOR (Homo sapiens, UniProt P42345); test: Kinase profiler assay; assay type: biochemical; conditions: 10 concentrations, 100 μM highest
# T6 construct: purchased Millipore UK Limited (Dundee, UK) or Reaction Biology Corp. (Malvern, Pa.)
# [18] = target: T7, P13K (P110a/85a) (Homo sapiens, UniProt P42336); test: Kinase profiler assay; assay type: biochemical; conditions: 10 concentrations, 100 μM highest
# T7 construct: purchased Millipore UK Limited (Dundee, UK) or Reaction Biology Corp. (Malvern, Pa.)
# [19] = target: T8, Pyk2 (Homo sapiens, UniProt Q14289); test: Kinase profiler assay; assay type: biochemical; conditions: 10 concentrations, 100 μM highest
# T8 construct: purchased Millipore UK Limited (Dundee, UK) or Reaction Biology Corp. (Malvern, Pa.)
# T8 sequence (Q14289 whole entry): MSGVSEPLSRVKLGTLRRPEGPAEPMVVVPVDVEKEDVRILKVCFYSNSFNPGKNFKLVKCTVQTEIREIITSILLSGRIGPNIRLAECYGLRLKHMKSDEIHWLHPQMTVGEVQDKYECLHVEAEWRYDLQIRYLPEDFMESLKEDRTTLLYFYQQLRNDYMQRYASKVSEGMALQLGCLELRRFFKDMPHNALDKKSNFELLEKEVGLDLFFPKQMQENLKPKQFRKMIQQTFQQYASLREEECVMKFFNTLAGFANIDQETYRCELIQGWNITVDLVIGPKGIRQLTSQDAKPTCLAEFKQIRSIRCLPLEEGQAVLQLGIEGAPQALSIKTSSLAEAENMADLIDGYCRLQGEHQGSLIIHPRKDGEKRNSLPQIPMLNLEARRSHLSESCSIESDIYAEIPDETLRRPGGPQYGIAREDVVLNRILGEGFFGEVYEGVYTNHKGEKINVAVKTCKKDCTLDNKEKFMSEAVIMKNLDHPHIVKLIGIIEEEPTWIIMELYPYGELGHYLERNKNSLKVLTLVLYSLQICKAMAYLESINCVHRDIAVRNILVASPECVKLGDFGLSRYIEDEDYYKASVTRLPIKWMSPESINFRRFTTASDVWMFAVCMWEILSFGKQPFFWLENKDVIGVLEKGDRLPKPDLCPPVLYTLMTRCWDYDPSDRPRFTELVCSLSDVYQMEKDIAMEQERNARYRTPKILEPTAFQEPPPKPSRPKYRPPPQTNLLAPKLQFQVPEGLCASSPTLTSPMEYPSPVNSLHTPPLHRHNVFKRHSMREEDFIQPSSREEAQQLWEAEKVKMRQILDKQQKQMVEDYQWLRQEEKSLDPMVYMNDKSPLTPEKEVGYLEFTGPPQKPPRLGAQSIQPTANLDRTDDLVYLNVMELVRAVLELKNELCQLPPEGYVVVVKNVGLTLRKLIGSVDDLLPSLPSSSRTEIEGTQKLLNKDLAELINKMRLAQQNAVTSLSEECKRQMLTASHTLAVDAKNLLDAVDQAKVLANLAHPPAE
# [20] = target: T9, Met (Homo sapiens, UniProt P08581); test: Kinase profiler assay; assay type: biochemical; conditions: 10 concentrations, 100 μM highest
# T9 construct: purchased Millipore UK Limited (Dundee, UK) or Reaction Biology Corp. (Malvern, Pa.)
# [21] = target: T10, PAK1 (Homo sapiens, UniProt Q13153); test: Kinase profiler assay; assay type: biochemical; conditions: 10 concentrations, 100 μM highest
# T10 construct: purchased Millipore UK Limited (Dundee, UK) or Reaction Biology Corp. (Malvern, Pa.)
# T10 sequence (Q13153 whole entry): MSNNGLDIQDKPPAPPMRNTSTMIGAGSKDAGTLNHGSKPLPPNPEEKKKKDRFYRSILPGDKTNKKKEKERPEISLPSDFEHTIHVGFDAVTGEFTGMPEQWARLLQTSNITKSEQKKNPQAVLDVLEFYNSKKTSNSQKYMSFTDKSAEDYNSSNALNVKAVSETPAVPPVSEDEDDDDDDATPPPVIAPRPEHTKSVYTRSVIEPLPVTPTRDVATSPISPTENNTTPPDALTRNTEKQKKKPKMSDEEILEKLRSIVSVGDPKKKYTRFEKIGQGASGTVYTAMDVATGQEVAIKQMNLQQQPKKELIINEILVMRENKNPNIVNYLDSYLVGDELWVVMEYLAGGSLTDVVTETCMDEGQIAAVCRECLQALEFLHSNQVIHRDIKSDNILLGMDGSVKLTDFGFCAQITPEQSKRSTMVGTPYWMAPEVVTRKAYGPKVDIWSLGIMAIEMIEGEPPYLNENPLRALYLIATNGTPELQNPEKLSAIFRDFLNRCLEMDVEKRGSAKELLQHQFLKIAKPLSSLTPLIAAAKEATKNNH
# [22] = target: T11, VEGFR1 (Homo sapiens, UniProt P17948); test: Kinase profiler assay; assay type: biochemical; conditions: 10 concentrations, 100 μM highest
# T11 construct: purchased Millipore UK Limited (Dundee, UK) and Reaction Biology Corp. (Malvern, Pa.)
# [23] = target: T12, Syk (Homo sapiens, UniProt P43405); test: Kinase profiler assay; assay type: biochemical; conditions: 10 concentrations, 100 μM highest
# T12 construct: purchased Millipore UK Limited (Dundee, UK) or Reaction Biology Corp. (Malvern, Pa.)
# [24] = system: MDA-MB-231 cells; test: Soft agar colony formation assay; assay type: cell-based, human; conditions: LLL12 1 μM or 5 μM, two weeks
# Procedure: A base 0.6% agar gel with 10% FBS in DMEM was prepared and added to the wells of a 6-well culture dish. […] The cells were maintained at 37° C. and allowed to grow for two weeks. The colonies were stained using MTT dye (100 μL per well). Pictures of the colonies were taken using a Leica MZ 16FA inverted microscope (Leica Microsystems) with a 7.4 Slider Camera (Diagnostic Instruments Inc.). The colonies were scored by counting and numbers were normalized as a percentage of colonies formed in DMSO.
# [25] = target: T13, PDK1 (Homo sapiens, UniProt O15530); test: Kinase profiler assay; assay type: biochemical; conditions: 10 concentrations, 100 μM highest
# T13 construct: purchased Millipore UK Limited (Dundee, UK) or Reaction Biology Corp. (Malvern, Pa.)
# [26] = target: T14, P13K (P110b/85a) (Homo sapiens, UniProt P42338); test: Kinase profiler assay; assay type: biochemical; conditions: 10 concentrations, 100 μM highest
# T14 construct: purchased Millipore UK Limited (Dundee, UK) or Reaction Biology Corp. (Malvern, Pa.)
# [27] = target: T15, AKT1 (Homo sapiens, UniProt P31749); test: Kinase profiler assay; assay type: biochemical; conditions: 10 concentrations, 100 μM highest
# T15 construct: purchased Millipore UK Limited (Dundee, UK) or Reaction Biology Corp. (Malvern, Pa.)
# T15 sequence (P31749 whole entry): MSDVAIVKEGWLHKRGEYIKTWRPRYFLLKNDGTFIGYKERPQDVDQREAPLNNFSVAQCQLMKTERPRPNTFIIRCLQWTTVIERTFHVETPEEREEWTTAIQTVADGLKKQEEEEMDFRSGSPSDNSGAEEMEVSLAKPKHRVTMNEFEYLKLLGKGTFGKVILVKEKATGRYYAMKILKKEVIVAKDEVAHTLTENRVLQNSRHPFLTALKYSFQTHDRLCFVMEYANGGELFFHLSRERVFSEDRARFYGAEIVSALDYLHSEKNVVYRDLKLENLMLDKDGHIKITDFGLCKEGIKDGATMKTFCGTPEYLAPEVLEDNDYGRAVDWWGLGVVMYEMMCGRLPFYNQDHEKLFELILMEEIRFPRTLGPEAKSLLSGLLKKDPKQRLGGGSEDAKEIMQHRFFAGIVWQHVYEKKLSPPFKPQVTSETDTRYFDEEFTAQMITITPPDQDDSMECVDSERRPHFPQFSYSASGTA
# [28] = target: T16, CDK6/CyclinD1 (Homo sapiens, UniProt Q00534); test: Kinase profiler assay; assay type: biochemical; conditions: 10 concentrations, 100 μM highest
# T16 construct: purchased Millipore UK Limited (Dundee, UK) or Reaction Biology Corp. (Malvern, Pa.)
# [29] = target: T17, CDK4/CyclinD1 (Homo sapiens, UniProt P11802); test: Kinase profiler assay; assay type: biochemical; conditions: 10 concentrations, 100 μM highest
# T17 construct: purchased Millipore UK Limited (Dundee, UK) or Reaction Biology Corp. (Malvern, Pa.)
# [30] = target: T18, JAK2 (Homo sapiens, UniProt O60674); test: Kinase profiler assay; assay type: biochemical; conditions: 10 concentrations, 100 μM highest
# T18 construct: purchased Millipore UK Limited (Dundee, UK) or Reaction Biology Corp. (Malvern, Pa.)
# [31] = target: T19, c-SRC (Homo sapiens, UniProt P12931); test: Kinase profiler assay; assay type: biochemical; conditions: 10 concentrations, 100 μM highest
# T19 construct: purchased Millipore UK Limited (Dundee, UK) or Reaction Biology Corp. (Malvern, Pa.)
# [32] = target: T20, EGFR (Homo sapiens, UniProt P00533); test: Kinase profiler assay; assay type: biochemical; conditions: 10 concentrations, 100 μM highest
# T20 construct: purchased Millipore UK Limited (Dundee, UK) or Reaction Biology Corp. (Malvern, Pa.)
# T20 sequence (P00533 25-1210): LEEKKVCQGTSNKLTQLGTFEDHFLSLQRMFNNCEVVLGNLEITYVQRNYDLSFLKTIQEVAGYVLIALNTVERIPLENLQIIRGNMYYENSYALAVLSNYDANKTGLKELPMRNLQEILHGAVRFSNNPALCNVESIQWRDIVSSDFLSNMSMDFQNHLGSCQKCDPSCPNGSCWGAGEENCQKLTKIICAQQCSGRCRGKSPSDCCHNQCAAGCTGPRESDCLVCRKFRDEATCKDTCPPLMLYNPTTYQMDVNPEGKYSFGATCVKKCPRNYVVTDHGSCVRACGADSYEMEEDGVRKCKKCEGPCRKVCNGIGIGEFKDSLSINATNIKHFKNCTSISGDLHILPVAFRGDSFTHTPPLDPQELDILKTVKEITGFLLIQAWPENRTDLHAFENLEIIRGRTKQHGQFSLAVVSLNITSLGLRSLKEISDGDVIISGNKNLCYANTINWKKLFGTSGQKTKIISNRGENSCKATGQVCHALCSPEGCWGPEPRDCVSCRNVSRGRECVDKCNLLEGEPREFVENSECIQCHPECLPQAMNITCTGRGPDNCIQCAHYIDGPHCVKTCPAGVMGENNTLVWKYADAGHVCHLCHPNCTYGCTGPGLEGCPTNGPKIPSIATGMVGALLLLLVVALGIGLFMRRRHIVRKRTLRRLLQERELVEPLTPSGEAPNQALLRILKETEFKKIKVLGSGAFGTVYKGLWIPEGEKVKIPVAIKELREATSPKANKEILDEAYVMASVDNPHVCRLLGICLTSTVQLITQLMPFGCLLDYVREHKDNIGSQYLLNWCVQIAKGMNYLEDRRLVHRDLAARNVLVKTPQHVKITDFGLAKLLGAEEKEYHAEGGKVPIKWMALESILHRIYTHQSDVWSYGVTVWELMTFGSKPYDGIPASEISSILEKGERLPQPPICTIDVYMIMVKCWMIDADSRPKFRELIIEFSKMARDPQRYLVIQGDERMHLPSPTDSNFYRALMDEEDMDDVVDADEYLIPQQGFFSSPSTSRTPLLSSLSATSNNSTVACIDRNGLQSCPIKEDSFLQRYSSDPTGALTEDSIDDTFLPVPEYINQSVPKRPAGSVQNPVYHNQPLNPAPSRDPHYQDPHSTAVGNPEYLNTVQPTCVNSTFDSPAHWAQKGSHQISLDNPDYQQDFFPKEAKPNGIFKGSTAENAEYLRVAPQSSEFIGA
# [33] = target: T21, Fyn (Homo sapiens, UniProt P06241); test: Kinase profiler assay; assay type: biochemical; conditions: 10 concentrations, 100 μM highest
# T21 construct: purchased Millipore UK Limited (Dundee, UK) or Reaction Biology Corp. (Malvern, Pa.)
# T21 sequence (P06241 whole entry): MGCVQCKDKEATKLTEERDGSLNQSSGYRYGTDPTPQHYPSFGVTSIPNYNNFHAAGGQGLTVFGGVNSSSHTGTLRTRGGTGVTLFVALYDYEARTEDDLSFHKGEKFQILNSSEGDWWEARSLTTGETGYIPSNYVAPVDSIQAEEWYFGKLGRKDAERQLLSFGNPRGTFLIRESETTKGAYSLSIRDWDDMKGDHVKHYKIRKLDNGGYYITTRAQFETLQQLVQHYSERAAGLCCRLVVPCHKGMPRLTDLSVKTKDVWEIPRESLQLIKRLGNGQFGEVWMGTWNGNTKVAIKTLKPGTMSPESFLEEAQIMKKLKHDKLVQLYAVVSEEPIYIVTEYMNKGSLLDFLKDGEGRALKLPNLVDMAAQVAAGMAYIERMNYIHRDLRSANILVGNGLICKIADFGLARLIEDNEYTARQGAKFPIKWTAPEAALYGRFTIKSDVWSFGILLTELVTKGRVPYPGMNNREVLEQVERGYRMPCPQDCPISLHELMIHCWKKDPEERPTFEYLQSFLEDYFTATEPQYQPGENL
# [34] = target: T22, CHK1 (Homo sapiens, UniProt O14757); test: Kinase profiler assay; assay type: biochemical; conditions: 10 concentrations, 100 μM highest
# T22 construct: purchased Millipore UK Limited (Dundee, UK) or Reaction Biology Corp. (Malvern, Pa.)
# T22 sequence (O14757 whole entry): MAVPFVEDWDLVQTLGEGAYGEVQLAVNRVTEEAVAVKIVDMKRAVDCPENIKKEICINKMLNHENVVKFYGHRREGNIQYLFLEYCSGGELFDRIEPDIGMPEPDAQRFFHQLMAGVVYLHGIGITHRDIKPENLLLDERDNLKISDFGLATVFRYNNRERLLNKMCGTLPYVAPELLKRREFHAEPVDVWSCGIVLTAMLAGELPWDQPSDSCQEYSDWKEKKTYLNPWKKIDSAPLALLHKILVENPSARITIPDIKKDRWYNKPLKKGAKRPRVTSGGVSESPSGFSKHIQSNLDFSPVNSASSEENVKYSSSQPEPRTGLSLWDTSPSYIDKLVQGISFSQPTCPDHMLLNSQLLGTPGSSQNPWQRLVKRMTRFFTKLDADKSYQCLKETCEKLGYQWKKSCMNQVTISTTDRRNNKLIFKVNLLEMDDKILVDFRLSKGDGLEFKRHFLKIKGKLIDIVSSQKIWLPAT
# [35] = target: T23, C-Kit (Homo sapiens, UniProt P10721); test: Kinase profiler assay; assay type: biochemical; conditions: 10 concentrations, 100 μM highest
# T23 construct: purchased Millipore UK Limited (Dundee, UK) or Reaction Biology Corp. (Malvern, Pa.)
# [36] = target: T24, TAK1 (Homo sapiens, UniProt O43318); test: Kinase profiler assay; assay type: biochemical; conditions: 10 concentrations, 100 μM highest
# T24 construct: purchased Millipore UK Limited (Dundee, UK) or Reaction Biology Corp. (Malvern, Pa.)
# [37] = target: T25, PKC-b (Homo sapiens, UniProt P05771); test: Kinase profiler assay; assay type: biochemical; conditions: 10 concentrations, 100 μM highest
# T25 construct: purchased Millipore UK Limited (Dundee, UK) or Reaction Biology Corp. (Malvern, Pa.)
# [38] = system: HPDE, HMEC, HH and WI-38 cells; test: Western blot, cleaved PARP and caspase-3 in normal cells; conditions: LLL12 5 μM or 10 μM, 24 hours
smiles,measurement,setting,value
C[C@H](NC(=O)/C(C#N)=C/c1cccc(Br)n1)c1ccccc1 [WP1066],IC50,[1]; Homo sapiens,3.31 µM
same,IC50,[2]; Homo sapiens,5.12 µM
same,IC50,"[3]; Homo sapiens, U373 MG",5.16 µM
same,IC50,[4]; Homo sapiens,2.52 µM
same,IC50,[5]; Homo sapiens,7.48 µM
Cc1ccc(S(=O)(=O)OCC(=O)Nc2ccc(C(=O)O)c(O)c2)cc1 [S3I-201],IC50,[1],> 100 µM
same,IC50,[2],> 100 µM
same,IC50,[3],52.5 µM
same,IC50,[6],55.1 µM
same,IC50,[4],> 100 µM
same,IC50,[5],> 100 µM
O=[N+]([O-])c1ccc2c(c1)S(=O)(=O)C=C2 [Stattic],ALDH^+ subpopulation percentage,[7],decreased the percentage of ALDH^+ subpopulation
same,cell viability of the ALDH^+ subpopulation,[8],can inhibit cell viability
same,STAT3 phosphorylation in ALDH^+ cells,[9],reduces STAT3 phosphorylation
same,effects on ALDH^− cells,[10],inhibitory effects
same,tumorsphere forming capacity,[11],can inhibit tumorsphere forming capacity
NS(=O)(=O)c1cccc2c1C(=O)c1cccc(O)c1C2=O [LLL12],IC50,[12],> 100 µM
same,IC50,[13],> 100 µM
same,IC50,[14],> 100 µM
same,IC50,[15],> 100 µM
same,IC50,[16],> 100 µM
same,IC50,[17],> 100 µM
same,IC50,[18],> 100 µM
same,IC50,[19],> 100 µM
same,IC50,[20],> 100 µM
same,IC50,[21],> 100 µM
same,IC50,[22],> 100 µM
same,IC50,[23],> 100 µM
same,decrease in colony formation compared to the DMSO control,[24],over 95%
same,IC50,[25],> 100 µM
same,IC50,[26],> 100 µM
same,IC50,[27],> 100 µM
same,IC50,[28],> 100 µM
same,IC50,[29],77.9 µM
same,IC50,[30],> 100 µM
same,IC50,[31],> 100 µM
same,IC50,[32],> 100 µM
same,IC50,[33],> 100 µM
same,IC50,[34],> 100 µM
same,IC50,[35],> 100 µM
same,IC50,[36],> 100 µM
same,IC50,[37],> 100 µM
same,cleaved PARP or caspase-3 in cells without elevated STAT3 phosphorylation,[38],did not induce cleaved PARP or caspase-3
